# Reference: patent US9682965B2, “Fumagillol heterocyclic compounds and methods of making and using same” (Zafgen, Inc., priority 2015, dated 2017)
# Counter-ions that a name gives are not always drawn.
# Tested on: Diet Induced Obese (DIO) C57BL/6 mice
# Test: 10 day DIO mouse model (body weight, food intake, hematology, blood chemistry)
# Assay type: in vivo
# Conditions: 240 h; DIO mouse, 0.3 mpk sc, once a day for 10 days; read-out: DIO Mouse 10-day weight loss vs vehicle
# From the text: The objective of this study design was to investigate the efficacy of disclosed compounds in a 10 day DIO mouse model. Effects on body weight, food intake, hematology and blood chemistry were the primary readouts of this study design. […] Mice were fed Research Diets D12492 (60% Kcal fat, 20% Kcal carbohydrate and 20% protein) and provided water ad libitum. DIO mice were received and housed in the facility for approximately two weeks prior to the start of test article administration. On Day −4 or −3, mice were randomized into study groups based on body weight and body weights were continued to be recorded daily for the duration of the study. Daily food intake was assessed starting on Study Day −2 by weighing of the food with hopper together to avoid loss of food in transfer.
# Compounds were formulated into a 100% DMSO stock (at 9 mg/mL) prior to the start, and further diluted into the target working concentration using the vehicle of 10% DMSO in water. Prior to test article administration, starting on Day −3 a dosing acclimation occured with all animals receiving a subcutaneous injection of vehicle (10% DMSO) only for 3 days. Starting on Day 1, test compounds or vehicle were administered based on individual body weight, subcutaneously, once a day for 10 days. All mice were sacrificed on Day 11, 24 hours following the final dosing on Day 10. After sacrifice, whole blood was collected and analyzed for hematology and blood chemistry parameters.
# Compounds were tested vs. vehicle at various doses (1.0, 0.5, 0.3, 0.1, 0.03 mpk sc (mg per kg animal weight delivered subcutaneously), and the results are shown in Table 2 below.
row,Structure (SMILES),inhibition in vivo at 0.3 mg/kg [%]
1,"CCN(CC)C[C@H]1CCN(C(=O)O[C@@H]2CC[C@]3(CO3)[C@@H]([C@@]3(C)O[C@@H]3CC=C(C)C)[C@@H]2OC)C1 [Example 38, (R)-((3R,4S,5S,6R)-5-methoxy-4-((2R,3R)-2-methyl-3-(3-methylbut-2-enyl)oxiran-2-yl)-1-oxaspiro[2.5]octan-6-yl) 3-((diethylamino)methyl)pyrrolidine-1-carboxylate formate]",6.7
2,"CO[C@@H]1[C@H](OC(=O)N2CC(CCN3CCOCC3=O)C2)CC[C@]2(CO2)[C@H]1[C@@]1(C)O[C@@H]1CC=C(C)C [Example 39, (3R,4S,5S,6R)-5-methoxy-4-((2R,3R)-2-methyl-3-(3-methylbut-2-enyl)oxiran-2-yl)-1-oxaspiro[2.5]octan-6-yl 3-(2-(3-oxomorpholino)ethyl)azetidine-1-carboxylate]",1.7
3,"CO[C@@H]1[C@H](OC(=O)N2CC[C@H]2CN2CCCC2)CC[C@]2(CO2)[C@H]1[C@@]1(C)O[C@@H]1CC=C(C)C [Example 41, (S)-((3R,4S,5S,6R)-5-methoxy-4-((2R,3R)-2-methyl-3-(3-methylbut-2-enyl)oxiran-2-yl)-1-oxaspiro[2.5]octan-6-yl) 2-(pyrrolidin-1-ylmethyl)azetidine-1-carboxylate formate]",4.4
4,"CO[C@@H]1[C@H](OC(=O)N2CC[C@@H]2CN2CCCC2)CC[C@]2(CO2)[C@H]1[C@@]1(C)O[C@@H]1CC=C(C)C [Example 42, (R)-((3R,4S,5S,6R)-5-methoxy-4-((2R,3R)-2-methyl-3-(3-methylbut-2-enyl)oxiran-2-yl)-1-oxaspiro[2.5]octan-6-yl) 2-(pyrrolidin-1-ylmethyl)azetidine-1-carboxylate formate]",5.3
5,"CCN(CC)CC1CN(C(=O)O[C@@H]2CC[C@]3(CO3)[C@@H]([C@@]3(C)O[C@@H]3CC=C(C)C)[C@@H]2OC)CCO1 (stereo partly drawn) [Example 44, (3R,4S,5S,6R)-5-methoxy-4-((2R,3R)-2-methyl-3-(3-methylbut-2-enyl)oxiran-2-yl)-1-oxaspiro[2.5]octan-6-yl 2-((diethylamino)methyl)morpholine-4-carboxylate formate]",2.1
6,"CO[C@@H]1[C@H](OC(=O)N2CC(CCN3CC[C@H](O)C3)C2)CC[C@]2(CO2)[C@H]1[C@@]1(C)O[C@@H]1CC=C(C)C [Example 46, (3R,4S,5S,6R)-5-methoxy-4-((2R,3R)-2-methyl-3-(3-methylbut-2-enyl)oxiran-2-yl)-1-oxaspiro[2.5]octan-6-yl 3-(2-((S)-3-hydroxypyrrolidin-1-yl)ethyl)azetidine-1-carboxylate formate]",5.2
7,"CO[C@@H]1[C@H](OC(=O)N2CC(CCN3CC[C@@H](O)C3)C2)CC[C@]2(CO2)[C@H]1[C@@]1(C)O[C@@H]1CC=C(C)C [Example 47, (3R,4S,5S,6R)-5-methoxy-4-((2R,3R)-2-methyl-3-(3-methylbut-2-enyl)oxiran-2-yl)-1-oxaspiro[2.5]octan-6-yl 3-(2-((R)-3-hydroxypyrrolidin-1-yl)ethyl)azetidine-1-carboxylate]",5.6
8,"CCN(CC)CC[C@H]1CCCN1C(=O)O[C@@H]1CC[C@]2(CO2)[C@@H]([C@@]2(C)O[C@@H]2CC=C(C)C)[C@@H]1OC [Example 50, (R)-((3R,4S,5S,6R)-5-methoxy-4-((2R,3R)-2-methyl-3-(3-methylbut-2-enyl)oxiran-2-yl)-1-oxaspiro[2.5]octan-6-yl) 2-(2-(diethylamino)ethyl)pyrrolidine-1-carboxylate formate]",2.6
9,"CCN(CC)CC[C@@H]1CCCN1C(=O)O[C@@H]1CC[C@]2(CO2)[C@@H]([C@@]2(C)O[C@@H]2CC=C(C)C)[C@@H]1OC [Example 51, (S)-((3R,4S,5S,6R)-5-methoxy-4-((2R,3R)-2-methyl-3-(3-methylbut-2-enyl)oxiran-2-yl)-1-oxaspiro[2.5]octan-6-yl) 2-(2-(diethylamino)ethyl)pyrrolidine-1-carboxylate formate]",4.3
10,"CO[C@@H]1[C@H](OC(=O)N2CC[C@@H](CCN3CC(F)(F)C3)C2)CC[C@]2(CO2)[C@H]1[C@@]1(C)O[C@@H]1CC=C(C)C [Example 58, (R)-((3R,4S,5S,6R)-5-methoxy-4-((2R,3R)-2-methyl-3-(3-methylbut-2-enyl)oxiran-2-yl)-1-oxaspiro[2.5]octan-6-yl) 3-(2-(3,3-difluoroazetidin-1-yl)ethyl)pyrrolidine-1-carboxylate]",15.8
11,"CO[C@@H]1[C@H](OC(=O)N2CC(CCC(=O)NCCN3CCOCC3)C2)CC[C@]2(CO2)[C@H]1[C@@]1(C)O[C@@H]1CC=C(C)C [Example 67, (3R,4S,5S,6R)-5-methoxy-4-((2R,3R)-2-methyl-3-(3-methylbut-2-enyl)oxiran-2-yl)-1-oxaspiro[2.5]octan-6-yl 3-(3-(2-morpholinoethylamino)-3-oxopropyl)azetidine-1-carboxylate]",2.8
12,"CCN(CC)CCNC(=O)OCC1CN(C(=O)O[C@@H]2CC[C@]3(CO3)[C@@H]([C@@]3(C)O[C@@H]3CC=C(C)C)[C@@H]2OC)C1 [Example 68, (3R,4S,5S,6R)-5-methoxy-4-((2R,3R)-2-methyl-3-(3-methylbut-2-en-1-yl)oxiran-2-yl)-1-oxaspiro[2.5]octan-6-yl 3-((((2-(diethylamino)ethyl)carbamoyl)oxy)methyl)azetidine-1-carboxylate]",0
13,"CO[C@@H]1[C@H](OC(=O)N2CC(COC(=O)N(C)C)C2)CC[C@]2(CO2)[C@H]1[C@@]1(C)O[C@@H]1CC=C(C)C [Example 70, (3R,4S,5S,6R)-5-methoxy-4-((2R,3R)-2-methyl-3-(3-methylbut-2-enyl)oxiran-2-yl)-1-oxaspiro[2.5]octan-6-yl 3-((dimethylcarbamoyloxy)methyl)azetidine-1-carboxylate]",14.5
14,"CCNC(=O)OC1CN(C(=O)O[C@@H]2CC[C@]3(CO3)[C@@H]([C@@]3(C)O[C@@H]3CC=C(C)C)[C@@H]2OC)C1 [Example 75, (3R,4S,5S,6R)-5-methoxy-4-((2R,3R)-2-methyl-3-(3-methylbut-2-enyl)oxiran-2-yl)-1-oxaspiro[2.5]octan-6-yl 3-(ethylcarbamoyloxy)azetidine-1-carboxylate]",12.8
15,"CO[C@@H]1[C@H](OC(=O)N2CC(OC(=O)NC(C)C)C2)CC[C@]2(CO2)[C@H]1[C@@]1(C)O[C@@H]1CC=C(C)C [Example 76, (3R,4S,5S,6R)-5-methoxy-4-((2R,3R)-2-methyl-3-(3-methylbut-2-enyl)oxiran-2-yl)-1-oxaspiro[2.5]octan-6-yl 3-(isopropylcarbamoyloxy)azetidine-1-carboxylate]",15.4
16,"CO[C@@H]1[C@H](OC(=O)N2CC(OC(=O)N(C)C)C2)CC[C@]2(CO2)[C@H]1[C@@]1(C)O[C@@H]1CC=C(C)C [Example 77, (3R,4S,5S,6R)-5-methoxy-4-((2R,3R)-2-methyl-3-(3-methylbut-2-enyl)oxiran-2-yl)-1-oxaspiro[2.5]octan-6-yl 3-(dimethylcarbamoyloxy)azetidine-1-carboxylate]",16.3
17,"CO[C@@H]1[C@H](OC(=O)N2CC(OC(=O)N3CCS(=O)(=O)CC3)C2)CC[C@]2(CO2)[C@H]1[C@@]1(C)O[C@@H]1CC=C(C)C [Example 79, 1-(((3R,4S,5S,6R)-5-methoxy-4-((2R,3R)-2-methyl-3-(3-methylbut-2-enyl)oxiran-2-yl)-1-oxaspiro[2.5]octan-6-yloxy)carbonyl)azetidin-3-yl thiomorpholine 2,2-dioxide-4-carboxylate formate]",0.1
18,"CO[C@@H]1[C@H](OC(=O)N2CC(OC(=O)NCC(C)(C)O)C2)CC[C@]2(CO2)[C@H]1[C@@]1(C)O[C@@H]1CC=C(C)C [Example 82, (3R,4S,5S,6R)-5-methoxy-4-((2R,3R)-2-methyl-3-(3-methylbut-2-enyl)oxiran-2-yl)-1-oxaspiro[2.5]octan-6-yl 3-(2-hydroxy-2-methylpropylcarbamoyloxy)azetidine-1-carboxylate]",-0.7
19,"COC(=O)NC1CN(C(=O)O[C@@H]2CC[C@]3(CO3)[C@@H]([C@@]3(C)O[C@@H]3CC=C(C)C)[C@@H]2OC)C1 [Example 87, (3R,4S,5S,6R)-5-methoxy-4-((2R,3R)-2-methyl-3-(3-methylbut-2-enyl)oxiran-2-yl)-1-oxaspiro[2.5]octan-6-yl 3-(methoxycarbonylamino)azetidine-1-carboxylate]",10.9
20,"CO[C@@H]1[C@H](OC(=O)N2CC(CCC3CCN(C)CC3)C2)CC[C@]2(CO2)[C@H]1[C@@]1(C)O[C@@H]1CC=C(C)C [Example 90, (3R,4S,5S,6R)-5-methoxy-4-((2R,3R)-2-methyl-3-(3-methylbut-2-enyl)oxiran-2-yl)-1-oxaspiro[2.5]octan-6-yl 3-(2-(1-methylpiperidin-4-yl)ethyl)azetidine-1-carboxylate formate]",13.5
21,"CO[C@@H]1[C@H](OC(=O)N2CC(CCC3CN(CC(F)F)C3)C2)CC[C@]2(CO2)[C@H]1[C@@]1(C)O[C@@H]1CC=C(C)C [Example 92, (3R,4S,5S,6R)-5-methoxy-4-((2R,3R)-2-methyl-3-(3-methylbut-2-enyl)oxiran-2-yl)-1-oxaspiro[2.5]octan-6-yl 3-(2-(1-(2,2-difluoroethyl)azetidin-3-yl)ethyl)azetidine-1-carboxylate]",20.7
